Data on 20 compounds can be found in ChEMBL document CHEMBL3616476, “Expanding the structural diversity of Bcr-Abl inhibitors: Hybrid molecules based on GNF-2 and Imatinib” (Bioorg Med Chem Lett, 2015).

Experiment [1] has as its target Bcr/Abl fusion protein (Homo sapiens, UniProt P00519). Nature of the experiment: Inhibition of Bcr-Abl (unknown origin) after 1 hr by luminescence assay. In kind it is protein assay.
The test system of experiment [2] is K562. Nature of the experiment: cells. Conditions: Homo sapiens, K562, 48 h.
Experiment [3] has as its target K562 (Homo sapiens). The experiment in a line: Antiproliferative activity against human K562 cells by MTT assay. On the technique in general: Tetrazolium assays rely on reduction of a dye to a coloured formazan, in cell work by metabolically active cells.

Sequence of Bcr/Abl fusion protein (P00519 whole entry, the tested form may be a part): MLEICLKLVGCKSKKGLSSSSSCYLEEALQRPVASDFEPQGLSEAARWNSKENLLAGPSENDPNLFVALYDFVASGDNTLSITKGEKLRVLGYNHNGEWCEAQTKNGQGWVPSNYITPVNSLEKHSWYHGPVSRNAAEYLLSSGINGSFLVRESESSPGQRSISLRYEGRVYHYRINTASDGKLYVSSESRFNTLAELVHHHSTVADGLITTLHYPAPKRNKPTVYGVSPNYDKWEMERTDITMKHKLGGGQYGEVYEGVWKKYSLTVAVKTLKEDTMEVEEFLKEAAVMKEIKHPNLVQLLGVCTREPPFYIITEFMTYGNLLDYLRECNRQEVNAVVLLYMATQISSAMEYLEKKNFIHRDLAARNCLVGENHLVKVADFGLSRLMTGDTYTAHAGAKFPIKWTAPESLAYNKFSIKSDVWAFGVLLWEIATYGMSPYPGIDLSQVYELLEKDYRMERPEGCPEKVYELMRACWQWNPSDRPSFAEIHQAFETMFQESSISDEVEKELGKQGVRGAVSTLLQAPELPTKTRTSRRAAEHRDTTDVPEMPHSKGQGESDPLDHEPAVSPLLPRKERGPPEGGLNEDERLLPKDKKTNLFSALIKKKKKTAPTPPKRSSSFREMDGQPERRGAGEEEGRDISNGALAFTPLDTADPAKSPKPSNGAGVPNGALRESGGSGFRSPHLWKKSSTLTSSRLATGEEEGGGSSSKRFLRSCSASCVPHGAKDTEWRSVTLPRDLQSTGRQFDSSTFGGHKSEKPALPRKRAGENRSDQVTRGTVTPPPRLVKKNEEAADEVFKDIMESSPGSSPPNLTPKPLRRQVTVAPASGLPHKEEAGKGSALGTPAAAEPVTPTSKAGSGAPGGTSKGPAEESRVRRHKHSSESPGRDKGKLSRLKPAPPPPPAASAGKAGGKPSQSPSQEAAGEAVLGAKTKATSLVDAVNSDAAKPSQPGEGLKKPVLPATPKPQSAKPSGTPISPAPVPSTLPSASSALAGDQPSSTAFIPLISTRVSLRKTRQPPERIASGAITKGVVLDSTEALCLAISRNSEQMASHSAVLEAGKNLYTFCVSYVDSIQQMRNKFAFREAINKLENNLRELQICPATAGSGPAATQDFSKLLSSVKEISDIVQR
Sequence of Bcr/Abl fusion protein (P11274 whole entry, further chain, the tested form may be a part): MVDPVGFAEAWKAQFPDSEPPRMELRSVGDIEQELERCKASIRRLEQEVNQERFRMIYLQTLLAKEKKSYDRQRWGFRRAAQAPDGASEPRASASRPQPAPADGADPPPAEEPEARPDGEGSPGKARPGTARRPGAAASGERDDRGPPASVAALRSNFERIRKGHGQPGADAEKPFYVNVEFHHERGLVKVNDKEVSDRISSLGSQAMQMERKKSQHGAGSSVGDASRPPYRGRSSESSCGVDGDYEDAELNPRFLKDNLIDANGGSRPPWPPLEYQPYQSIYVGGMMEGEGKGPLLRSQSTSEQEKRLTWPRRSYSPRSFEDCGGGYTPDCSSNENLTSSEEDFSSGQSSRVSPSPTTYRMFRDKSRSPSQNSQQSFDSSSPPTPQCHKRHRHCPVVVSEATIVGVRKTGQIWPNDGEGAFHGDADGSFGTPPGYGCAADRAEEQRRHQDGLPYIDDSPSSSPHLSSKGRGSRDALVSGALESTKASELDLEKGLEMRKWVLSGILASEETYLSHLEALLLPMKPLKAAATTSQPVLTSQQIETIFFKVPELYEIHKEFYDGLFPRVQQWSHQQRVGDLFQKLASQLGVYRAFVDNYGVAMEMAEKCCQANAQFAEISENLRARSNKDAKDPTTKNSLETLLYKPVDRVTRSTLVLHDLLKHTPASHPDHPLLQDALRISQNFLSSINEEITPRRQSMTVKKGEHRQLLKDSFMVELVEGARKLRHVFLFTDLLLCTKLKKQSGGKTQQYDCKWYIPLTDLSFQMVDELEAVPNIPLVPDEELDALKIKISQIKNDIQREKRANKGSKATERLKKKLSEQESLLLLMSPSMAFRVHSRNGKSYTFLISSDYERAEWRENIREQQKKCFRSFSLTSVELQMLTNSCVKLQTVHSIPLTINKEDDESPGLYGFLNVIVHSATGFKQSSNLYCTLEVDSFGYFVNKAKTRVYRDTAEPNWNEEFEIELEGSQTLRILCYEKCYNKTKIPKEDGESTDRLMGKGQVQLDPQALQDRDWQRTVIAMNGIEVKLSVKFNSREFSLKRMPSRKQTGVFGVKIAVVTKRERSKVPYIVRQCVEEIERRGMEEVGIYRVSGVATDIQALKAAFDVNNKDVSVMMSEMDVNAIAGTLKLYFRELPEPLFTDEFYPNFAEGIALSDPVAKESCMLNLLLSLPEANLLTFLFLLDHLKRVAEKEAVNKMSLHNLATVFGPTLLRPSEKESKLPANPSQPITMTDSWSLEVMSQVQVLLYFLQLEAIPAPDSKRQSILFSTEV

What is called IC50 is the concentration that inhibits the measured activity by half. A lower IC50 goes with greater potency in that assay. With `COc1ccc(Nc2cc(-c3ccc(C(=O)NCCNC(=O)c4cccc(C(F)(F)F)c4)cc3)ncn2)cc1`, the figures for the IC50 in experiment [1] and in experiment [2] were 2.59 µM and 65.3 µM, respectively.

With `COc1ccc(Nc2cc(-c3ccc(C(=O)NCCNC(=O)c4cccc(OC)c4)cc3)ncn2)cc1`, the IC50 in experiment [1] is 8.53 µM; in experiment [2] it was 11.2 µM. Taken in the same sequence, the figures for `COc1ccc(Nc2cc(-c3ccc(C(=O)NCCNC(=O)c4ccccc4C)cc3)ncn2)cc1` were 14.5 µM and 38.5 µM. Taken in the same sequence, the figures for `COc1ccc(Nc2cc(-c3ccc(C(=O)NCCNC(=O)c4ccc(C(C)(C)C)cc4)cc3)ncn2)cc1` were over 100 µM and 0.83 µM. The matching figures for `COc1ccc(Nc2cc(-c3ccc(C(=O)NCCNC(=O)c4cccc(N(C)C)c4)cc3)ncn2)cc1`: 9.25 µM and 0.85 µM. `COc1ccc(Nc2cc(-c3ccc(C(=O)NCCNC(=O)c4cccc(F)c4)cc3)ncn2)cc1`: the values for the IC50 in experiment [1] and in experiment [2] were 11.3 µM and 33.9 µM, respectively. The matching figures for `COc1ccc(Nc2cc(-c3ccc(C(=O)NCCNC(=O)c4ccccc4Cl)cc3)ncn2)cc1`: 9.24 µM and 0.64 µM. In turn, `COc1ccc(Nc2cc(-c3ccc(C(=O)NCCNC(=O)c4ccc(F)cc4)cc3)ncn2)cc1` had an IC50 in experiment [2] of 10.9 µM. Consider `COc1ccc(Nc2cc(-c3ccc(C(=O)NCCNC(=O)c4ccc(F)c(F)c4)cc3)ncn2)cc1`, for which the IC50 came out at 4.4 µM in experiment [1] and 6.2 µM in experiment [2]. The matching figures for `COc1ccc(Nc2cc(-c3ccc(C(=O)NCCNC(=O)c4c(F)cccc4Cl)cc3)ncn2)cc1`: 6.2 µM and 8.5 µM. For `COc1ccc(Nc2cc(-c3ccc(C(=O)N4CCN(C(=O)c5ccccc5F)CC4)cc3)ncn2)cc1`, the IC50 in experiment [1] and in experiment [2] was 8.96 µM in each case.

Consider `COc1ccc(Nc2cc(-c3ccc(C(=O)N4CCN(C(=O)c5ccccc5Cl)CC4)cc3)ncn2)cc1`, for which the IC50 in experiment [2] is 73.9 µM. On to `COc1ccc(Nc2cc(-c3ccc(C(=O)N4CCN(C(=O)c5ccc(F)cc5)CC4)cc3)ncn2)cc1`, for which the results for the IC50 in experiment [1] and in experiment [2] were 0.017 µM and 35.7 µM, respectively. Taken in the same sequence, the figures for `COc1ccc(Nc2cc(-c3ccc(C(=O)N4CCN(C(=O)c5ccc(OC)cc5)CC4)cc3)ncn2)cc1` were over 100 µM and over 100 µM. As for `COc1ccc(Nc2cc(-c3ccc(C(=O)N4CCN(C(=O)c5cccc(F)c5)CC4)cc3)ncn2)cc1`, in experiment [2], the IC50 came to 42.2 µM.

Regarding `COc1ccc(Nc2cc(-c3ccc(C(=O)N4CCN(C(=O)c5ccc(Cl)cc5Cl)CC4)cc3)ncn2)cc1`, the IC50 in experiment [2] and in experiment [3] was 35 µM in each case. For the compound `COc1ccc(Nc2cc(-c3ccc(C(=O)N4CCN(C(=O)c5ccc(F)c(F)c5)CC4)cc3)ncn2)cc1`, the IC50 in experiment [2] and in experiment [3] was 15.3 µM throughout. Consider `COc1ccc(Nc2cc(-c3ccc(C(=O)N4CCN(C(=O)c5cccc(C(F)(F)F)c5)CC4)cc3)ncn2)cc1`, for which the IC50 in experiment [2] and in experiment [3] was 51.9 µM each time. As for `COc1ccc(Nc2cc(-c3ccc(C(=O)N4CCN(C(=O)c5cccc(C)c5)CC4)cc3)ncn2)cc1`, the IC50 in experiment [1] and in experiment [2] was over 100 µM each time. As for `COc1ccc(Nc2cc(-c3ccc(C(=O)N4CCN(C(=O)c5cccc(N(C)C)c5)CC4)cc3)ncn2)cc1`, the IC50 in experiment [2] and in experiment [3] was over 100 µM in each case.
